Assay results: patent US4668681A, “2-(4-Phenylpiperazinylethyl) anilines” (Societe Cortial, S.A., priority 1981, dated 1987)
Values after ≈ are worked out from the molar mass of the structure shown.

Columns and labels:
male Sprague-Dawley rats = experiment: Antiallergic activity: passive cutaneous anaphylaxis test; format: in vivo; settings: oral, suspension with Tween 80, ten minutes before the releasing injection, rat; read-out: ED50 (percentage decrease of the amount of Evans blue diffused in the papule)
Procedure: The antiallergic activity was determined by the passive cutaneous anaphylaxis test in the following manner. A quantity of 0.1 ml of serum containing IgE was administered intradermally to male Sprague-Dawley rats. The serum was prepared by sensitizing Sprague-Dawley rats by an intraperitoneal injection of ovalbumin and a suspension of Bordetella pertussis followed after 20 days by a second injection of ovalbumin. 24 Hours after administration of the serum, 0.5 ml of a solution containing 8.25 mg/kg of ovalbumin and 26.4 mg/kg of Evans blue in a pH 7.05 buffer was administered intravenously. After 30 minutes the animals were sacrificed. Each papule was dissected, weighed and incubated for four days at 37° C. in 15 g of formamide. The amount of Evans blue contained in each papule was determined by measuring the optical density of the mixture. The product to be tested was administered orally in a homogenous suspension in the presence of Tween 80, ten minutes before the releasing injection. Its activity is evaluated by the percentage decrease of the amount of Evans blue which has diffused in the papule.

[1] = Lethality (LD50) by oral administration in the Swiss mouse; settings: in vivo, 20% solution in Tween, 14 days observation
Procedure: The lethality produced by the compounds of this invention was measured in the Swiss mouse free from specific pathogenic organisms.

[2] = tested on: isolated ileum of the guinea pig; experiment: Antihistaminic activity in vitro: inhibition of histamine-induced contractions of isolated ileum; format: cell-based; settings: Cavia porcellus, histamine 1×10^-8 g/l, bathing method, read-out: IC50 (concentration producing 50% inhibition of contractions induced by histamine)
Procedure: The antihistaminic activity was measured in vitro by measuring the concentration which produced 50% inhibition of the contractions induced by histamine (1×10^-8 g/l) in the isolated ileum of the guinea pig (IC50).

SMILES: Nc1ccccc1CCN1CCN(c2ccccc2)CC1 [Example 1, 2-(4-phenylpiperazinylethyl)aniline]
- ED50 (male Sprague-Dawley rats): 5.11 mg/kg
- LD50 at 336 h [1]: 1180 mg/kg
- IC50 [2]: 6.3 µg/mL (≈ 22.4 µM)
